Measured values from patent US9486464B2, “Composition and method of manufacture” (Persavita Ltd, priority 2010, dated 2016).

Key:
primary human RPE cells = assay: Light-induced phototoxicity in primary human RPE cells, viability by MTT assay; type: cell-based; details: pre-treatment 100 μM crocin, 1 μM resveratrol or both; 300 mW/cm^2 for 60 min; FIG. 3
Description: (§1) When implementing the method, concentrations of 10 μM to 500 μM crocin and 0.1 μM to 25 μM resveratrol are beneficially employed for toxicity characterization. Moreover, concentrations of 100 μM crocin and 1 μM resveratrol are beneficially employed to investigate synergistic effects against light-induced phototoxicity with a final DMSO concentration of 0.1%. Beneficially, DMSO is added to cultures at 0.1% (v/v) as a solvent control.
For preparing the cell culture medium, primary RPE cells from three human donors (obtained 3 to 10 hours postmortem) without any history of eye disease were obtained from the Eye Bank of Ludwig Maximilian University. Dulbecco-modified Eagle medium (DMEM, obtainable from Biochrom, Berlin, Germany) supplemented with 10% fetal calf serum (FCS, obtainable from Biochrom, Berlin, Germany) was used as the cell culture medium when undertaking the experimental tests. […]
The aforesaid illumination is beneficially obtained from a spot-light source (LC-8, obtainable from Hamamatsu Photonics, Japan), although other illumination sources are optionally employed. […] For obtaining accurate experimental measurements, the illumination power and spectral range of illumination employed for the tests are beneficially measured using a spectrometer (C10083MD, obtainable from Hamamatsu Photonics), although other measuring instruments may be optionally employed. […]

[1] = system: bovine and primate retinal cell cultures; details: 160 μM crocin; cited from earlier work
primary RPE cells = assay: Toxicity testing on RPE cell cultures (MTT assay); details: 24 hours of exposure; crocin 10 μM to 500 μM, resveratrol 0.1 μM to 25 μM
Description: as §1
Dulbecco-modified Eagle medium (DMEM, obtainable from Biochrom, Berlin, Germany) supplemented with 10% fetal calf serum (FCS, obtainable from Biochrom, Berlin, Germany) was used as the cell culture medium when undertaking the experimental tests.
For determining cell survival rate after the aforesaid illumination, the tetrazolium dye-reduction assay (MTT); 3-[4,5-methylthiazol-2-yl]-2,2-diphenyl tetrazolium bromide) is beneficially used for determining the cell survival rate after aforesaid illumination has been applied. […] The serum-free cell culture medium is beneficially removed, the cells then washed with PBS, and thereafter 1000 μL of MTT solution (1.5 mL MTT stock, 2 mg/mL in PBS, together with 28.5 mL MEM) added to each well in the cell culture. […] Thereafter, absorption is beneficially measured by employing a scanning multiwell spectrophotometer operating at an interrogating radiation wavelength of 550 nm (apparatus obtainable from Molecular Probes). […]

mouse retina = details: in vitro and in vivo, sirtuin-independent pathway; cited from earlier work
[2] = system: vascular endothelial cells; details: cited from earlier work
human RPE cells = details: cited from earlier work
retina = details: oral consumption in mice; cited from earlier work
mammalian retina = details: after exposure to damaging light; cited from earlier work

Row | SMILES | decrease in viability of RPE cells after light exposure compared with cells not treated (primary human RPE cells) | photoreceptors surviving light exposure [1] | toxic effects in respect of RPE cell cultures (primary RPE cells) | pathological angiogenesis (mouse retina) | proliferation and migration of vascular endothelial cells [2] | effect on acrolein-induced oxidative stress (human RPE cells) | retinal degradation related to light damage (retina) | retinal morphology and function (mammalian retina)
1 | CC(/C=C/C=C(\C)C(=O)O[C@@H]1O[C@H](CO[C@@H]2O[C@H](CO)[C@@H](O)[C@H](O)[C@H]2O)[C@@H](O)[C@H](O)[C@H]1O)=C\C=C\C=C(C)\C=C\C=C(/C)C(=O)O[C@@H]1O[C@H](CO[C@@H]2O[C@H](CO)[C@@H](O)[C@H](O)[C@H]2O)[C@@H](O)[C@H](O)[C@H]1O [crocin] | significantly smaller decrease in viability | more than 90% | no significant toxic effects | – | – | – | – | –
2 | Oc1ccc(/C=C/c2cc(O)cc(O)c2)cc1 [resveratrol, 3,5,4″-trihydroxystilbene] | significantly smaller decrease in viability | – | – | inhibit pathological angiogenesis | inhibiting proliferation and migration | protective effects | capable of preventing retinal degradation | –
3 | CC1=C(/C=C/C(C)=C/C=C/C(C)=C/C=C/C=C(C)/C=C/C=C(C)/C=C/C2=C(C)CCCC2(C)C)C(C)(C)CCC1 [beta-carotene] | – | – | – | – | – | – | – | ineffective for maintaining retinal function, and only improved morphology
